These results are taken from patent publication US9169241B2, “Quinolinyloxyphenylsulfonamides” (Max-Planck-Gesellschaft Zur Forderung der Wissenschaften …, priority 2009, dated 2015).

Holding throughout (type): cell-based
The subject of experiment [1] is SF126. Description: Matrigel outgrowth assay/branching assay. The note with it: Homo sapiens, SF-126, Table Vb, read-out: Total branching inhibition in Matrigel SF126. In a few lines:
(§1)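 Invasive outgrowth into a 3 mg/ml Matrigel gel is judged from images taken after 48, 72 and 96 h of exposure to 3.125, 1.56 or 0.78 μM compound, with DMSO as control. Positive means total inhibition of branching.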

The subject of experiment [2] is U118. Description: Matrigel outgrowth assay/branching assay. Conditions: Table Vb, read-out: Total branching inhibition in Matrigel U118. In outline: as §1
Experiment [3] concerns A172. Put plainly: Matrigel outgrowth assay/branching assay. Conditions: Homo sapiens, A 172, Table Vb, read-out: Total branching inhibition in Matrigel A172. In outline:
as §1

In experiment [4] the test system is tumor cell. Description: Matrigel outgrowth assay/branching assay (Table Va). In a few lines: as §1

Like-named read-outs stand apart in the source and are kept apart here.

With `COc1cc2c(Oc3ccc(NS(=O)(=O)c4c(F)cccc4F)cc3F)ccnc2cc1OCCCN1CCCCC1` [Example 11, 2,6-Difluoro-N-{3-fluoro-4-[6-methoxy-7-(3-piperidin-1-yl-propoxy)-quinolin-4-yloxy]-phenyl}-benzenesulfonamide], the IC100 in experiment [1], in experiment [2] and in experiment [3] was greater than 12.5 µM in each case.
Consider `COc1cc2c(Oc3ccc(NS(=O)(=O)c4ccccc4[N+](=O)[O-])cc3F)ccnc2cc1OCCCN1CCCC(C)C1` (stereo not shown) [Example 40, N-(3-Fluoro-4-{6-methoxy-7-[3-(3-methyl-piperidin-1-yl)-propoxy]-quinolin-4-yloxy}-phenyl)-2-nitro-benzenesulfonamide], for which the IC100 in experiment [1] was no more than 12.5 µM; in experiment [2], greater than 12.5 µM; in experiment [3], greater than 12.5 µM.
For `COc1cc2c(Oc3ccc(NS(=O)(=O)c4ccccc4OC(F)(F)F)cc3F)ccnc2cc1OCCCN1CCCC(C)C1` (stereo not shown) [Example 45, N-(3-Fluoro-4-{6-methoxy-7-[3-(3-methyl-piperidin-1-yl)-propoxy]-quinolin-4-yloxy}-phenyl)-2-trifluoromethoxy-benzenesulfonamide], the IC100 is no more than 12.5 µM in experiment [1], no more than 12.5 µM in experiment [2] and greater than 12.5 µM in experiment [3].
Turning to `COc1cc2c(Oc3ccc(NS(=O)(=O)c4ccc(F)c(F)c4F)cc3F)ccnc2cc1OCCCN1CCCC(C)C1` (stereo not shown) [Example 49, 2,3,4-Trifluoro-N-(3-fluoro-4-{6-methoxy-7-[3-(3-methyl-piperidin-1-yl)-propoxy]-quinolin-4-yloxy}-phenyl)-benzenesulfonamide], the IC100 in experiment [1], in experiment [2] and in experiment [3] was greater than 12.5 µM each time.
Turning to `COc1cc2c(Oc3ccc(NS(=O)(=O)c4c(Cl)cccc4Cl)cc3F)ccnc2cc1OCCCN1CCCC(C)C1` (stereo not shown) [Example 51, 2,6-Dichloro-N-(3-fluoro-4-{6-methoxy-7-[3-(3-methyl-piperidin-1-yl)-propoxy]-quinolin-4-yloxy}-phenyl)-benzenesulfonamide], the IC100 was no more than 12.5 µM in experiment [1], no more than 12.5 µM in experiment [2] and greater than 12.5 µM in experiment [3].
`COc1cc2c(Oc3ccc(NS(=O)(=O)c4cccc(Cl)c4F)cc3F)ccnc2cc1OCCCN1CCCC(C)C1` (stereo not shown) [Example 54, 3-Chloro-2-fluoro-N-(3-fluoro-4-{6-methoxy-7-[3-(3-methyl-piperidin-1-yl)-propoxy]-quinolin-4-yloxy}-phenyl)-benzenesulfonamide]: the IC100 in experiment [1] is no more than 12.5 µM; in experiment [2], greater than 12.5 µM; in experiment [3] it was greater than 12.5 µM.
As for `COC(=O)c1sccc1S(=O)(=O)Nc1ccc(Oc2ccnc3cc(OCCCN4CCCC(C)C4)c(OC)cc23)c(F)c1` (stereo not shown) [Example 66, 3-(3-Fluoro-4-{6-methoxy-7-[3-(3-methyl-piperidin-1-yl)-propoxy]-quinolin-4-yloxy}-phenylsulfamoyl)-thiophene-2-carboxylic acid methyl ester], the IC50 in experiment [4] (Homo sapiens, C8161 cells, read-out: Total branching inhibition in Matrigel C8161) is no more than 5 µM; in experiment [4] (Homo sapiens, Hs-578T, Hs578T cells, read-out: Total branching inhibition in Matrigel Hs578T), no more than 5 µM; in experiment [4] (U118 cells, read-out: Total branching inhibition in Matrigel U118) it was no more than 5 µM; in experiment [4] (U138 cells, read-out: Total branching inhibition in Matrigel U138), 5 to 50 µM. In addition, the IC100 in experiment [1] was no more than 12.5 µM; in experiment [2], no more than 12.5 µM; in experiment [3], greater than 12.5 µM.
Consider `COc1cc2c(Oc3ccc(NS(=O)(=O)c4ccccc4OC(F)(F)F)cc3F)ccnc2cc1OCCCN1CCCCC1` [Example 78, N-{3-Fluoro-4-[6-methoxy-7-(3-piperidin-1-yl-propoxy)-quinolin-4-yloxy]-phenyl}-2-trifluoromethoxy-benzenesulfonamide], for which the IC100 in experiment [1] is no more than 12.5 µM; in experiment [2], greater than 12.5 µM; in experiment [3] it was greater than 12.5 µM.
With `COc1cc2c(Oc3ccc(NS(=O)(=O)c4c(Cl)cccc4Cl)cc3F)ccnc2cc1OCCN1CCOCC1` [Example 104, 2,6-Dichloro-N-{3-fluoro-4-[6-methoxy-7-(2-morpholin-4-yl-ethoxy)-quinolin-4-yloxy]-phenyl}-benzenesulfonamide], the IC100 in experiment [1], in experiment [2] and in experiment [3] was greater than 12.5 µM each time.
For the compound `COc1cc2c(Oc3ccc(NS(=O)(=O)c4c(F)cccc4F)cc3F)ccnc2cc1OCCCN1CCN(C)CC1` [Example 110, 2,6-Difluoro-N-(3-fluoro-4-{6-methoxy-7-[3-(4-methyl-piperazin-1-yl)-propoxy]-quinolin-4-yloxy}-phenyl)-benzenesulfonamide], the IC100 in experiment [1] was no more than 12.5 µM; in experiment [2], no more than 12.5 µM; in experiment [3] it was greater than 12.5 µM.
As to `COc1cc2c(Oc3ccc(NS(=O)(=O)c4cc(F)ccc4F)cc3Cl)ccnc2cc1OCCCN1CCN(C)CC1` [Example 112, N-(3-Chloro-4-{6-methoxy-7-[3-(4-methyl-piperazin-1-yl)-propoxy]-quinolin-4-yloxy}-phenyl)-2,5-difluoro-benzenesulfonamide], the IC100 in experiment [1], in experiment [2] and in experiment [3] was no more than 12.5 µM in each case.
In the case of `COc1cc2c(Oc3ccc(NS(=O)(=O)c4c(Cl)cccc4Cl)cc3Cl)ccnc2cc1OCCCN1CCN(C)CC1` [Example 119, 2,6-Dichloro-N-(3-chloro-4-{6-methoxy-7-[3-(4-methyl-piperazin-1-yl)-propoxy]-quinolin-4-yloxy}-phenyl)-benzenesulfonamide], the IC100 in experiment [1], in experiment [2] and in experiment [3] was no more than 12.5 µM throughout.
As for `COC(=O)c1sccc1S(=O)(=O)Nc1ccc(Oc2ccnc3cc(OCCCN4CCCCC4)c(OC)cc23)c(F)c1` [Example 155, 3-{3-Fluoro-4-[6-methoxy-7-(3-piperidin-1-yl-propoxy)-quinolin-4-yloxy]-phenylsulfamoyl}-thiophene-2-carboxylic acid methyl ester], the IC100 in experiment [1], in experiment [2] and in experiment [3] was no more than 12.5 µM throughout.
As for `COC(=O)c1sccc1S(=O)(=O)Nc1ccc(Oc2ccnc3cc(OCCCN4CCC(C)CC4)c(OC)cc23)c(F)c1` [Example 156, 3-(3-Fluoro-4-{6-methoxy-7-[3-(4-methyl-piperidin-1-yl)-propoxy]-quinolin-4-yloxy}-phenylsulfamoyl)-thiophene-2-carboxylic acid methyl ester], the IC100 in experiment [1] is no more than 12.5 µM; in experiment [2], no more than 12.5 µM; in experiment [3], greater than 12.5 µM.
On to `COC(=O)c1sccc1S(=O)(=O)Nc1ccc(Oc2ccnc3cc(OCCCN4CCOCC4)c(OC)cc23)c(F)c1` [Example 157, 3-{3-Fluoro-4-[6-methoxy-7-(3-morpholin-4-yl-propoxy)-quinolin-4-yloxy]-phenylsulfamoyl}-thiophene-2-carboxylic acid methyl ester], for which the values for the IC100 in experiment [1], in experiment [2] and in experiment [3] were no more than 12.5 µM, greater than 12.5 µM and greater than 12.5 µM, respectively.
For `COC(=O)c1sccc1S(=O)(=O)Nc1ccc(Oc2ccnc3cc(OCCCN4CCN(C)CC4)c(OC)cc23)c(F)c1` [Example 158, 3-(3-Fluoro-4-{6-methoxy-7-[3-(4-methyl-piperazin-1-yl)-propoxy]-quinolin-4-yloxy}-phenylsulfamoyl)-thiophene-2-carboxylic acid methyl ester], the IC100 in experiment [1] was no more than 12.5 µM; in experiment [2], no more than 12.5 µM; in experiment [3], greater than 12.5 µM.
Regarding `COc1cc2c(Oc3ccc(NS(=O)(=O)c4c(F)cccc4F)cc3F)ccnc2cc1OCCCN(C)C` [Example 178, N-{4-[7-(3-Dimethylamino-propoxy)-6-methoxy-quinolin-4-yloxy]-3-fluoro-phenyl}-2,6-difluoro-benzenesulfonamide], the IC100 in experiment [1] was no more than 12.5 µM; in experiment [2], no more than 12.5 µM; in experiment [3] it was greater than 12.5 µM.
Turning to `COc1cc2c(Oc3ccc(NS(=O)(=O)c4ccccc4OC(F)(F)F)cc3F)ccnc2cc1OCCCN(C)C` [Example 179, N-{4-[7-(3-Dimethylamino-propoxy)-6-methoxy-quinolin-4-yloxy]-3-fluoro-phenyl}-2-trifluoromethoxy-benzenesulfonamide], the IC100 in experiment [1] was no more than 12.5 µM; in experiment [2] it was no more than 12.5 µM; in experiment [3], greater than 12.5 µM.
As for `COc1cc2c(Oc3ccc(NS(=O)(=O)c4c(Cl)cccc4Cl)cc3F)ccnc2cc1OCCCN(C)C` [Example 181, 2,6-Dichloro-N-{4-[7-(3-dimethylamino-propoxy)-6-methoxy-quinolin-4-yloxy]-3-fluoro-phenyl}-benzenesulfonamide], the IC100 was no more than 12.5 µM in experiment [1], no more than 12.5 µM in experiment [2] and greater than 12.5 µM in experiment [3].
With `COC(=O)c1sccc1S(=O)(=O)Nc1ccc(Oc2ccnc3cc(OCCCN(C)C)c(OC)cc23)c(F)c1` [Example 184, 3-{4-[7-(3-Dimethylamino-propoxy)-6-methoxy-quinolin-4-yloxy]-3-fluoro-phenylsulfamoyl}-thiophene-2-carboxylic acid methyl ester], the IC100 in experiment [1] is no more than 12.5 µM; in experiment [2], no more than 12.5 µM; in experiment [3] it was greater than 12.5 µM.
As to `COc1cc2c(Oc3c(Cl)cc(NS(=O)(=O)c4c(F)cccc4F)cc3Cl)ccnc2cc1OCCCN1CCC(C)CC1` [Example 209, N-(3,5-Dichloro-4-{6-methoxy-7-[3-(4-methyl-piperidin-1-yl)-propoxy]-quinolin-4-yloxy}-phenyl)-2,6-difluoro-benzenesulfonamide], the IC100 in experiment [1], in experiment [2] and in experiment [3] was no more than 12.5 µM in each case.
`COc1cc2c(Oc3c(Cl)cc(NS(=O)(=O)c4ccccc4C(F)(F)F)cc3Cl)ccnc2cc1OCCCN1CCC(C)CC1` [Example 210, N-(3,5-Dichloro-4-{6-methoxy-7-[3-(4-methyl-piperidin-1-yl)-propoxy]-quinolin-4-yloxy}-phenyl)-2-trifluoromethyl-benzenesulfonamide]: the IC100 is no more than 12.5 µM in experiment [1], no more than 12.5 µM in experiment [2] and greater than 12.5 µM in experiment [3].
